Results taken from the supplement of paper PMC10307832.

Legend:
Test in all cases: relative viability (nuclei count vs DMSO), 5 days (fraction); higher = more cells survive
CAP-232 = compound: C[C@H]([C@@H](C(=O)N)NC(=O)[C@@H]1CSSC[C@@H](C(=O)N[C@H](C(=O)N[C@@H](C(=O)N[C@H](C(=O)N1)CCCCN)CC2=CNC3=CC=CC=C32)CC4=CC=C(C=C4)O)NC(=O)[C@@H](CC5=CC=CC=C5)N)O [CAP-232]
How it was run: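 Cells of lung cancer lines were placed in 1536-well plates and kept overnight at 37 °C. Pinning then delivered five library-drug doses (not always all listed), spaced by √10, onto plates anchored with vehicle, and the cells were left 5 days without changing medium. One step fixed, permeabilised and stained them with Hoechst, and MetaXpress counted nuclei in 4× images. Viability, as a median over plates, is treated-well nuclei divided by vehicle-well nuclei, with acceptance only at control CV below 25% and at least one doubling.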

CAP-232 + Navitoclax = compound: C[C@H]([C@@H](C(=O)N)NC(=O)[C@@H]1CSSC[C@@H](C(=O)N[C@H](C(=O)N[C@@H](C(=O)N[C@H](C(=O)N1)CCCCN)CC2=CNC3=CC=CC=C32)CC4=CC=C(C=C4)O)NC(=O)[C@@H](CC5=CC=CC=C5)N)O [CAP-232] + CC1(C)CCC(c2ccc(Cl)cc2)=C(CN2CCN(c3ccc(C(=O)NS(=O)(=O)c4ccc(N[C@H](CCN5CCOCC5)CSc5ccccc5)c(S(=O)(=O)C(F)(F)F)c4)cc3)CC2)C1 [Navitoclax] (partner 0.5 µM)
How it was run: (§1)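 A single step with final 0.05% Triton X-100, 1% formaldehyde and 1 ug/ml Hoechst fixed the cells and stained nuclei 5 days after treatment. Lung cancer cell lines in 1536-well plates had been treated by pin tool the day after seeding with one drug alone or a fixed anchor-drug dose plus five library-drug doses (not always all listed) in √10 steps, and nuclei were counted on 4× images. Relative viability is the ratio of nuclei in treated wells to nuclei in vehicle wells, taken as the median of duplicate plates.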

CAP-232 + OSI-027 = compound: C[C@H]([C@@H](C(=O)N)NC(=O)[C@@H]1CSSC[C@@H](C(=O)N[C@H](C(=O)N[C@@H](C(=O)N[C@H](C(=O)N1)CCCCN)CC2=CNC3=CC=CC=C32)CC4=CC=C(C=C4)O)NC(=O)[C@@H](CC5=CC=CC=C5)N)O [CAP-232] + COc1cccc2cc(-c3nc([C@H]4CC[C@H](C(=O)O)CC4)n4ncnc(N)c34)[nH]c12 [OSI-027] (partner 0.5 µM)
How it was run: as §1

CAP-232 + Pictilisib = compound: C[C@H]([C@@H](C(=O)N)NC(=O)[C@@H]1CSSC[C@@H](C(=O)N[C@H](C(=O)N[C@@H](C(=O)N[C@H](C(=O)N1)CCCCN)CC2=CNC3=CC=CC=C32)CC4=CC=C(C=C4)O)NC(=O)[C@@H](CC5=CC=CC=C5)N)O [CAP-232] + CS(=O)(=O)N1CCN(Cc2cc3nc(-c4cccc5[nH]ncc45)nc(N4CCOCC4)c3s2)CC1 [Pictilisib] (partner 1 µM)
How it was run: as §1

CAP-232 + Decitabine = compound: C[C@H]([C@@H](C(=O)N)NC(=O)[C@@H]1CSSC[C@@H](C(=O)N[C@H](C(=O)N[C@@H](C(=O)N[C@H](C(=O)N1)CCCCN)CC2=CNC3=CC=CC=C32)CC4=CC=C(C=C4)O)NC(=O)[C@@H](CC5=CC=CC=C5)N)O [CAP-232] + Nc1ncn([C@H]2C[C@H](O)[C@@H](CO)O2)c(=O)n1 [Decitabine] (partner 2 µM)
How it was run: as §1

| Cell Line | relative viability (CAP-232; 0.4 µM) | relative viability (CAP-232; 1.265 µM) | relative viability (CAP-232; 4 µM) | relative viability (CAP-232; 12.65 µM) | relative viability (CAP-232 + Navitoclax; first compound 0.4 µM) | relative viability (CAP-232 + Navitoclax; first compound 1.265 µM) | relative viability (CAP-232 + Navitoclax; first compound 4 µM) | relative viability (CAP-232 + Navitoclax; first compound 12.65 µM) | relative viability (CAP-232 + OSI-027; first compound 0.4 µM) | relative viability (CAP-232 + OSI-027; first compound 1.265 µM) | relative viability (CAP-232 + OSI-027; first compound 4 µM) | relative viability (CAP-232 + OSI-027; first compound 12.65 µM) | relative viability (CAP-232 + Pictilisib; first compound 0.4 µM) | relative viability (CAP-232 + Pictilisib; first compound 1.265 µM) | relative viability (CAP-232 + Pictilisib; first compound 4 µM) | relative viability (CAP-232 + Pictilisib; first compound 12.65 µM) | relative viability (CAP-232 + Decitabine; first compound 0.4 µM) | relative viability (CAP-232 + Decitabine; first compound 1.265 µM) | relative viability (CAP-232 + Decitabine; first compound 4 µM) | relative viability (CAP-232 + Decitabine; first compound 12.65 µM) |
| --- | --- | --- | --- | --- | --- | --- | --- | --- | --- | --- | --- | --- | --- | --- | --- | --- | --- | --- | --- | --- |
| COR-L 105 | 1.05 | 0.816 | 0.992 | 0.573 | 0.748 | 0.69 | 0.796 | 0.498 | 0.852 | 0.646 | 0.646 | 0.387 | 0.346 | 0.43 | 0.37 | 0.31 | 0.629 | 0.647 | 0.684 | 0.477 |
| ChaGo-K-1 | 1.1 | 0.99 | 1.05 | 1.04 | 1.43 | 0.818 | 0.973 | 0.734 | 0.65 | 0.504 | 0.678 | 0.6 | 1 | 0.51 | 0.703 | 0.256 | 0.497 | 0.542 | 0.506 | 0.547 |
| EKVX | 1.07 | 0.968 | 1.04 | 0.885 | 1.07 | 1.07 | 0.951 | 0.714 | 0.724 | 0.779 | 0.667 | 0.64 | 0.395 | 0.458 | 0.421 | 0.372 | 0.993 | 0.367 | 0.256 | 0.323 |
| EMC-BAC-2 | 1.19 | 0.941 | 0.995 | 0.866 | 1.23 | 1.25 | 1.38 | 0.935 | 0.407 | 0.324 | 0.328 | 0.358 | 0.511 | 0.51 | 0.534 | 0.48 | 0.969 | 0.963 | 0.959 | 0.972 |
| EPLC-272H | 0.998 | 0.909 | 1.05 | 0.915 | 1.37 | 1.29 | 1.17 | 0.964 | 0.275 | 0.284 | 0.285 | 0.262 | 0.284 | 0.281 | 0.325 | 0.287 | 0.348 | 0.334 | 0.344 | 0.355 |
| H3255 | 0.976 | 0.946 | 1.01 | 0.769 | 0.629 | 0.426 | 0.556 | 0.242 | 0.567 | 0.538 | 0.63 | 0.811 | 0.443 | 0.491 | 0.553 | 0.366 | 0.744 |  | 0.608 | 0.676 |
| HARA | 1.12 | 0.984 | 1.03 | 0.902 | 1.14 | 1.16 | 1.13 | 1.21 | 0.436 | 0.554 | 0.613 | 0.44 | 0.401 | 0.432 | 0.358 | 0.26 | 0.526 | 0.555 | 0.523 | 0.527 |
